Key:
[1] = target: mu receptor-G protein interaction (Homo sapiens, UniProt P35372); assay: BRET mu-G protein interaction assay (membranes of SH-SY5Y cells, mu-RLuc/Gβ1-RGFP)
Method: (§1) SH-SY5Y cells stably co-expressing the fusoproteins mu-RLuc and Gβ1-RGFP or mu-RLuc and β-arrestin 2-RGFP were grown in DMEM/F12 (1:1) medium supplemented with 10% FBS, 2 mM L-Glutamine, 100 μg/mL hygromycin B, 400 μg/mL G418, 100 units/mL penicillin G, 100 μg/mL streptomycin and 1 μg/mL Fungizone at 37°C in a humidified atmosphere with of 5% CO2.
Total protein in membrane preparations was determined by colorimetric method with the Quantum Protein-BCA kit (EuroClone, Pero (MI), IT) and measured using the multiplate reader Victor Nivo (PerkinElmer, Walthman, MA, United States). White opaque 96 wells microplates (PerkinElmer, Walthman, MA, United States) were used to carry out BRET assays. Cell membranes were thawed and resuspended in PBS supplemented with 0.02% BSA before the assay, and an amount of 5 μg of total protein was dispensed in each 96 well. All experiments were carried out at room temperature.
(§2) In agonism experiments, ligands were added and incubated for 5 min before microplate reading. […] BRET ratios were computed as follow: RGFPCPS/RLucCPSligand−RGFPCPS/RLucCPSvehicle
(§3) Concentration-response curves to agonists were fitted to the four-parameter logistic non-linear regression model as follows: Effect=Basal+Emax−Basal/1+10^LogEC50−Logligand×HillSlope

[2] = target: T1, mu receptor-β-arrestin 2 interaction (Homo sapiens, UniProt P35372); assay: cell-based; set-up: expressed in transfected cells; conditions: read-out: pKb (CL95%) (converted)
Method: In antagonism experiments, a 10 min preincubation with vehicle or fixed concentrations of ligand preceded the injection of increasing concentrations of EM-2.
Antagonist potencies (pKb) were computed applying the following equation: pKb = (log (CR − 1)) − log [Anta] with CR as the ratio between agonist potency (molar) in the presence and absence of antagonist and [Anta] is the molar concentration of antagonist. pKb represents the concentration of antagonist that occupies half of the receptor population at equilibrium, expressed in molar units.

[3] = target: T1, mu receptor-β-arrestin 2 interaction; assay: BRET mu-β-arrestin 2 interaction assay (living SH-SY5Y cells, mu-RLuc/β-arrestin 2-RGFP), agonism; conditions: BRET mu-β-arrestin 2; Inactive: Emax < 0.10; analog 6 obtained by forcing the Emax to 1
Method: as §1
Mu- β-arrestin 2 interaction—Living SH-SY5Y cells expressing mu-RLuc and β-arrestin 2-RGFP were seeded at a cell density of 100,000 cells/well 24 h prior to the test. On the day of the experiment, medium was discarded, and cells were washed with PBS supplemented with 0.5 mM MgCl2, 0.9 mM CaCl2. Cells were subsequently incubated with 2 μM Prolume Purple Coelenterazine (NanoLight Technology, White Mountain, AZ; United States) for 10 min before bioluminescence reading.
as §2, §3

[4] = target: T2, human recombinant kappa opioid receptor (Homo sapiens, UniProt P41145); assay: Radioligand binding, [3H]U-69593 displacement, CHO cell membranes
T2 construct: purchased; host or cells: CHO cells (membranes)

[5] = target: T3, human mu receptor (Homo sapiens, UniProt P35372); assay: Calcium mobilization assay, CHO mu cells expressing Gαqi5; assay type: cell-based; conditions: for mu α±SEM: intrinsic activity, Emax ratio to standard agonist EM-2, inactive = inactive up to 10 µM
T3 construct: expressed in transfected cells; host or cells: CHO cells stably co-expressing Gαqi5

[6] = Enzymatic degradation in rat brain homogenate; assay type: in vitro ADME; conditions: 37°C; for 100 x k, rate constant of degradation: up to 60 min; for half-life at 0.25 mM: rat, pH 7.4, rat brain homogenate, read-out: t1/2, degradation half-life
Method: Enzymatic degradation of EM-2 and the analogs was performed measuring their hydrolysis rates in the presence of rat brain homogenate. The homogenate was prepared prior to the experiment. Briefly, rat brains were homogenized in 20 volumes of Tris–HCl (50 mM, pH 7.4) using a Polytron and the obtained aliquots were stored at −80°C. In the experiment, aliquotes of brain homogenate (100 μL, 10 mg protein/mL) were incubated with 100 µL of a peptide (0.5 mM) over 0, 7.5; 15, 22.5; 30, and 60 min at 37°C, in a final volume of 200 µL. After the incubation the degradation reaction was stopped by placing the tube on ice and acidifying the content with 20 µL of HCl (1 M). The aliquots were centrifuged at 20,000 g for 10 min at 4°C. The supernatants were collected and filtered using Millex-GV syringe filters (Millipore). Then the analysis by HPLC on a Vydac C18 column (5 μm, 4.6 × 250 mm), using the solvent system of 0.1% TFA in water (A) and 80% acetonitrile in water containing 0.1% TFA (B) and a linear gradient of 0%–100% B over 25 min, was performed. Three independent experiments for each assay were carried out in duplicate. The rate constants of degradation (k) were obtained by the least square linear regression analysis of logarithmic peak areas [ln (A/AD)], where A—amount of remained peptide, AD—initial amount of peptide versus time. Degradation half-lives (t1/2) were calculated from the rate constants as ln2/k.

[7] = target: T4, delta-opioid receptor (Homo sapiens, UniProt P41143); assay: Radioligand binding, [3H]deltorphin-2 displacement, CHO cell membranes; set-up: purchased; host or cells: CHO cells (membranes)
[8] = target: T5, human kappa receptor (Homo sapiens, UniProt P41145); assay: Calcium mobilization assay, CHO kappa cells expressing Gαqi5; assay type: cell-based; conditions: inactive = inactive up to 10 µM; for Kappa pEC50 (CL95%): calcium mobilization; for Kappa α± SEM: intrinsic activity, Emax ratio to standard agonist dynorphin A
T5 construct: expressed in transfected cells; host or cells: CHO cells stably co-expressing Gαqi5

[9] = n-Octanol/water partition coefficient (log P); assay type: physicochemical; conditions: n-octanol / 0.05 M HEPES buffer in 0.1 M NaCl, pH 7.4
Method: Determination of log P was performed according to the method described by ([Liu et al., 2006]). Peptides were dissolved in 0.05 M HEPES buffer in 0.1 M NaCl, pH 7.4, then an equal volume of n-octanol was added and mixtures were vortexed for 2 min. Samples were centrifuged at 4,000 rpm for 1 min. After separation, aqueous and octanol phases were used to quantify peptide content by RP-HPLC.
Octanol phase was lyophilized and reconstituted in 80% acetonitrile in water containing 0.1% TFA before RP-HPLC. All n-octanol/buffer distribution studies were performed in triplicate.

[10] = target: T6, human recombinant mu opioid receptor (Homo sapiens, UniProt P35372); assay: Radioligand binding, [3H]DAMGO displacement, CHO cell membranes
T6 construct: purchased; host or cells: CHO cells (membranes)

[11] = target: T4, delta-opioid receptor; assay: Calcium mobilization assay, CHO delta cells expressing GαqG66Di5; assay type: cell-based; set-up: expressed in transfected cells; host or cells: CHO cells co-expressing GαqG66Di5; conditions: for Delta pEC50 (CL95%): calcium mobilization; for Delta pEC50 (CL95%) / Delta α± SEM: inactive = inactive up to 10 µM; for Delta α± SEM: intrinsic activity, Emax ratio to standard agonist DPDPE
[12] = ref Bergese et al., 2019, cited from earlier work

T1 sequence (P35372 whole entry): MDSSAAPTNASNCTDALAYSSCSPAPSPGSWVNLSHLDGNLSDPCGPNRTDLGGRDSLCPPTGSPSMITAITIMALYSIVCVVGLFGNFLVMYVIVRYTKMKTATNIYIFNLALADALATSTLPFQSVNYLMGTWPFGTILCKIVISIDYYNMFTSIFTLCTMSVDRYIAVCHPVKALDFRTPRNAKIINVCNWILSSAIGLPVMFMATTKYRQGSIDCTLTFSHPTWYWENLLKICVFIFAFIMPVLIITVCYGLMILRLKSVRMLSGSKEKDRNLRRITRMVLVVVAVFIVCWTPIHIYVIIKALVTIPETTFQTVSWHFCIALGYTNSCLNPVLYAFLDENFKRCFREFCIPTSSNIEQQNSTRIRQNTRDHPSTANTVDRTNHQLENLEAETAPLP
T3 sequence (P35372 whole entry): as above
T4 sequence (P41143 whole entry): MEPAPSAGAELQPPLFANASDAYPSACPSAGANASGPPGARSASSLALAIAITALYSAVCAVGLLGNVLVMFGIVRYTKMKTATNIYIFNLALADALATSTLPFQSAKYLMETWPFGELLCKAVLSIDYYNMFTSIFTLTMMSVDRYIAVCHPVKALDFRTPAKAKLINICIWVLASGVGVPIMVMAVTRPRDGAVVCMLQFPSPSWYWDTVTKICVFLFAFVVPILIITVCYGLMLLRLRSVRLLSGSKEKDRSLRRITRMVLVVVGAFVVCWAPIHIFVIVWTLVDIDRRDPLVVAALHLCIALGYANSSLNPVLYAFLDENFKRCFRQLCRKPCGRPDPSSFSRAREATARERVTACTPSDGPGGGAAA
Chain of mu receptor-G protein interaction (P62871 whole entry): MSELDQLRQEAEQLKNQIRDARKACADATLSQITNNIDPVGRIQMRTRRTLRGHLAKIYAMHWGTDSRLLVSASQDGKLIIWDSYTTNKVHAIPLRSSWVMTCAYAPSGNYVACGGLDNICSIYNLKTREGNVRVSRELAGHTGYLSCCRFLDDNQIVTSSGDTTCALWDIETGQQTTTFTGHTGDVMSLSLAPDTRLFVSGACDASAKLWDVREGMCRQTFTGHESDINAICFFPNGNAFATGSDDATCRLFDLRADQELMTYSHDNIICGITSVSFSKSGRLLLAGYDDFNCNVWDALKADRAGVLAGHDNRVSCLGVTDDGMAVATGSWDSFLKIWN
Chain of mu receptor-G protein interaction (P35372 whole entry): as the sequence (P35372 whole entry) above
T5 sequence (P41145 whole entry): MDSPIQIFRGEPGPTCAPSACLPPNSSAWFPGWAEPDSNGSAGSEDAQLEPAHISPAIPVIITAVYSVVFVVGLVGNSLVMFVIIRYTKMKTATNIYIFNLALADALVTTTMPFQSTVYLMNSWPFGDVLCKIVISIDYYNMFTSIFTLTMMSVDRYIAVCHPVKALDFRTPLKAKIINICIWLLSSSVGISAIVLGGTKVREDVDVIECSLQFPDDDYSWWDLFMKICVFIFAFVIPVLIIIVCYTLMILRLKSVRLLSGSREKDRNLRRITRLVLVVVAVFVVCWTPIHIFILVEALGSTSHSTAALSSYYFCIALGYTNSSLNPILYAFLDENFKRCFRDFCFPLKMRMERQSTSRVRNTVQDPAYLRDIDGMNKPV
T2 sequence (P41145 whole entry): as above
T6 sequence (P35372 whole entry): as the sequence (P35372 whole entry) above

Compound | EC50 [1] | Kb [2] | β-Arrestin 2 pEC50 (CL95%) [3] | Ki [4] | EC50 [5] | mu α±SEM [5] | 100 x k, rate constant of degradation [6] | half-life at 0.25 mM ([6]; ln2/k) | Ki [7] | Kappa pEC50 (CL95%) [8] | Kappa α± SEM [8] | logD [9] | Ki [10] | Delta pEC50 (CL95%) [11] | Delta α± SEM [11] | EC50 [11] | t1/2, degradation half-life ([6]; ln2/k) | patients with lack of efficacy ([12]; moderate to severe acute pain in adults) | patients who experienced some adverse effects (vomiting, nausea, headache, or constipation) [12]
NC(=O)[C@H](Cc1ccccc1)NC(=O)[C@H](Cc1ccccc1)NC(=O)[C@H]1CCCCN1C(=O)[C@@H](N)Cc1ccc(O)cc1 [analog 2, Tyr-(R)-Pip-Phe-Phe-NH2] | 38 nM | 170 nM | Inactive | > 1000 nM | 58.9 nM | 0.64 ± 0.04 | 0.57 ± 0.08 per min | 2.02 ± 0.0517 h | 682 ± 33 nM | inactive | inactive | 2.3 | 17.7 ± 1.14 nM | inactive | inactive | – | – | – | –
Cc1cc(O)cc(C)c1C[C@H](N)C(=O)N1CCCC[C@@H]1C(=O)N[C@@H](Cc1ccccc1)C(=O)N[C@@H](Cc1ccccc1)C(N)=O [analog 3, Dmt-(R)-Pip-Phe-Phe-NH2] | 1.91 nM | 0.0794 nM | Inactive | 72 ± 6 nM | 1.51 nM | 0.70 ± 0.03 | 0.73 ± 0.07 per min | 1.57 ± 0.0467 h | 37 ± 5 nM | inactive | inactive | 2.49 | 3.92 ± 0.5 nM | – | 0.56 ± 0.05 | 148 nM | – | – | –
NC(=O)[C@H](Cc1ccccc1)NC(=O)[C@@H](CNC(=O)[C@@H]1CCCN1C(=O)[C@@H](N)Cc1ccc(O)cc1)Cc1cccc2ccccc12 [analog 10, Tyr-Pro-(R)-β ^ 2 -1-Nal-Phe-NH2] | 105 nM | 631 nM | Inactive | > 1000 nM | – | 0.25 ± 0.06 | 0.41 ± 0.02 per min | 2.8 h | > 1000 nM | inactive | inactive | 2.5 | – | inactive | inactive | – | 2.805 ± 0.0917 h | – | –
Cc1cc(O)cc(C)c1C[C@H](N)C(=O)N1CCC[C@H]1C(=O)NC[C@@H](Cc1cccc2ccccc12)C(=O)N[C@@H](Cc1ccccc1)C(N)=O [analog 11, Dmt-Pro-(R)-β ^ 2 -1-Nal-Phe-NH2] | 4.9 nM | 0.398 nM | Inactive | > 1000 nM | 9.77 nM | 0.57 ± 0.05 | 0.56 ± 0.02 per min | 2.05 ± 0.0983 h | – | inactive | inactive | 2.71 | – | inactive | inactive | – | – | – | –
COc1ccsc1CNCC[C@@]1(c2ccccn2)CCOC2(CCCC2)C1 [oliceridine, [(3-methoxythiophen-2-yl)methyl]({2-[(9R)-9-(pyridin-2-yl)-6-oxaspiro-[4.5]decan-9-yl]ethyl})amine] | – | – | – | – | – | – | – | – | – | – | – | – | – | – | – | – | – | less than 5% | 64%

Source: article PMC9998502, “Functional selectivity of EM-2 analogs at the mu-opioid receptor” (Frontiers in Pharmacology, 2023)
